Drawing on patent US20260138959A1, “QUINAZOLINE DERIVATIVE COMPOUND AND USE THEREOF” (VORONOI INC., priority 2021, published 2026), this text covers GI50 for 27 compounds.

Structures are written as SMILES.

The test system of one experiment is Ba/F3-c-KIT(D816V). The experiment is described as follows: Proliferation inhibitory activity on Ba/F3 cell (CellTiter-Glo, 72 hours), c-KIT(D816V). It is filed as cell-based. Particulars: Mus musculus, BaF3, read-out: Ba/F3 (nM) c-KIT (D816V) (GI50 class). The protocol:
(§1) Ba/F3-TEL-PDGFRα(WT), Ba/F3-TEL-PDGFβ(WT), Ba/F3-c-KIT(D816V) (Kyinno, #KC-0138), c-KIT V560G/D816V, c-KIT D814Y were seeded at 3×10^3/100 μl/well in a clear bottom white 96-well plate. A culture solution containing compounds of 12 concentrations (0.00001-2 mM) serially diluted in 3 folds and the DMSO control group was added at 0.5 μl/well each to a final concentration of 0.00005-10 μM, and then incubated in a CO2 incubator at 37° C. for 72 hours. After 72 hours, the plate treated with the compound was taken out, CellTiter-Glo® Assay (Promega) solution was treated with 100 μl/well, followed by mixing well. After mixing well for about 10 minutes at room temperature, […] was measured using a microplate reader. The data were presented as percentages in proportion to treated cells based on the vehicle, GI50 (nM) values were calculated using GraphPad Prism 8.3.0 (GraphPad software Inc., San Diego).
(§2) The inhibitory activities of Ba/F3 expressing PDGFR-α, PDGFR-β, c-KIT(D816V), c-KIT V560G/D816V, and c-KIT D814Y measured as described above were measured and shown in Table 7 below (A: GI50≤200 nM; B: 200 nM<GI50≤500 nM; C: GI50>500 nM).
On the technique in general: ATP-based viability assays read luminescence as a measure of living cells.
As for `COc1cc2c(-c3ccc(NC(=O)Cc4ccc(C(F)(F)F)cc4)cc3)ncnc2cc1OCC1CCCN(C(=O)OC(C)(C)C)C1` (stereo not drawn) [Example 14, tert-butyl 3-(((6-methoxy-4-(4-(2-(4-(trifluoromethyl)phenyl)acetamido)phenyl)quinazolin-7-yl)oxy)methyl)piperidin-1-carboxylate], the GI50 was over 500 nM.

With `COc1cc2c(-c3ccc(NC(=O)Cc4ccc(C(F)(F)F)cc4)cc3)ncnc2cc1OCC1CCCNC1` (stereo not drawn) [Example 16, N-(4-(6-methoxy-7-(piperidin-3-ylmethoxy)quinazolin-4-yl)phenyl)-2-(4-(trifluoromethyl)phenyl)acetamide], the GI50 is at most 200 nM.

On to `COc1cc2c(-c3ccc(NC(=O)Cc4ccc(C(F)(F)F)cc4)cc3)ncnc2cc1OCCCN1CC2(C1)CN(C(=O)OC(C)(C)C)C2` [Example 19], for which the GI50 was at most 200 nM.

Consider `COc1cc2c(-c3ccc(NC(=O)Cc4ccc(C(F)(F)F)cc4)cc3)ncnc2cc1OCCCN1CC2(CNC2)C1` [Example 20, N-(4-(7-(3-(2,6-diazaspiro[3.3]heptane-2-yl)propoxy)-6-methoxyquinazolin-4-yl)phenyl)-2-(4-(trifluoromethyl)phenyl)acetamide], for which the GI50 is over 500 nM.

In the case of `CCN1CC2(C1)CN(CCCOc1cc3ncnc(-c4ccc(NC(=O)Cc5ccc(C(F)(F)F)cc5)cc4)c3cc1OC)C2` [Example 21, N-(4-(7-(3-(6-ethyl-2,6-diazaspiro[3.3]heptane-2-yl)propoxy)-6-methoxyquinazolin-4-yl)phenyl)-2-(4-(trifluoromethyl)phenyl)acetamide], the GI50 was at most 200 nM.

Turning to `COc1cc2c(-c3ccc(NC(=O)Cc4ccc(C(F)(F)F)cc4)cc3)ncnc2cc1OCCCNc1cnn(C)c1` [Example 26, N-(4-(6-methoxy-7-(3-((1-methyl-1H-pyrazol-4-yl)amino)propoxy)quinazolin-4-yl)phenyl)-2-(4-(trifluoromethyl)phenyl)acetamide], the GI50 is at most 200 nM.

Take `COc1cc2c(-c3ccc(NC(=O)Cc4ccc(C(F)(F)F)cc4)cc3)ncnc2cc1OC[C@@H]1CCNC1` [Example 38, (R)-N-(4-(6-methoxy-7-(pyrrolidin-3-ylmethoxy)quinazolin-4-yl)phenyl)-2-(4-(trifluoromethyl)phenyl)acetamide]: the GI50 is at most 200 nM.

For `COc1cc2c(-c3ccc(NC(=O)Cn4cc(C(C)C)nn4)cc3)ncnc2cc1OCC1CCNCC1` [Example 61, 2-(4-isopropyl-1H-1,2,3-triazole-1-yl)-N-(4-(6-methoxy-7-(piperidin-4-ylmethoxy)quinazolin-4-yl)phenyl)acetamide], the GI50 was over 500 nM.

For `COc1cc2c(-c3ccc(NC(=O)Cn4cc(C(C)(C)C)nn4)cc3)ncnc2cc1OCC1CCNCC1` [Example 62, 2-(4-(tert-butyl)-1H-1,2,3-triazole-1-yl)-N-(4-(6-methoxy-7-(piperidin-4-ylmethoxy)quinazolin-4-yl)phenyl)acetamide], the GI50 is over 500 nM.

For `CCN1CCC(COc2cc3ncnc(-c4ccc(NC(=O)Cn5cc(C(C)C)nn5)cc4)c3cc2OC)CC1` [Example 65, N-(4-(7-((1-ethylpiperidin-4-yl)methoxy)-6-methoxyquinazolin-4-yl)phenyl)-2-(4-isopropyl-1H-1,2,3-triazole-1-yl)acetamide], the GI50 is at most 200 nM.

Consider `CCN1CCC(COc2cc3ncnc(-c4ccc(NC(=O)Cn5cc(C(C)(C)C)nn5)cc4)c3cc2OC)CC1` [Example 66, 2-(4-(tert-butyl)-1H-1,2,3-triazole-1-yl)-N-(4-(7-((1-ethylpiperidin-4-yl)methoxy)-6-methoxyquinazolin-4-yl)phenyl)acetamide], for which the GI50 was at most 200 nM.

For the compound `COc1cc2c(-c3ccc(NC(=O)Cn4cc(C(C)C)nn4)cc3)ncnc2cc1OCCCN1CCN(C)CC1` [Example 67, 2-(4-isopropyl-1H-1,2,3-triazole-1-yl)-N-(4-(6-methoxy-7-(3-(4-methylpiperazin-1-yl)propoxy)quinazolin-4-yl)phenyl)acetamide], the GI50 is at most 200 nM.

With `COc1cc2c(-c3ccc(NC(=O)Cn4cc(C(C)(C)C)nn4)cc3)ncnc2cc1OCCCN1CCN(C)CC1` [Example 68, 2-(4-(tert-butyl)-1H-1,2,3-triazole-1-yl)-N-(4-(6-methoxy-7-(3-(4-methylpiperazin-1-yl)propoxy)quinazolin-4-yl)phenyl)acetamide], the GI50 is at most 200 nM.

As to `COc1cc2c(-c3ccc(NC(=O)Cc4ccc(C(F)(F)F)c(F)c4)cc3)ncnc2cc1OCC1CCNCC1` [Example 79, 2-(3-fluoro-4-(trifluoromethyl)phenyl)-N-(4-(6-methoxy-7-(piperidin-4-ylmethoxy)quinazolin-4-yl)phenyl)acetamide], the GI50 was at most 200 nM.

As to `COc1cc2c(-c3ccc(NC(=O)CC4CCNCC4)cc3)ncnc2cc1OCCCN1CCN(C)CC1` [Example 86, N-(4-(6-methoxy-7-(3-(4-methylpiperazin-1-yl)propoxy)quinazolin-4-yl)phenyl)-2-(piperidin-4-yl)acetamide], the GI50 is over 500 nM.

Take `C=CCC(=O)Nc1ccc(-c2ncnc3cc(OCCCN4CCN(C)CC4)c(OC)cc23)cc1` [Example 87, N-(4-(6-methoxy-7-(3-(4-methylpiperazin-1-yl)propoxy)quinazolin-4-yl)phenyl)but-3-enamide]: the GI50 is at most 200 nM.

For `COc1cc2ncnc(-c3ccc(NC(=O)Cc4ccc(C(F)(F)F)cc4)cc3)c2cc1OCCCN1CCN(C(C)=O)CC1` [Example 128, N-(4-(6-(3-(4-acetylpiperazin-1-yl)propoxy)-7-methoxyquinazolin-4-yl)phenyl)-2-(4-(trifluoromethyl)phenyl)acetamide], the GI50 is at most 200 nM.

For the compound `COc1cc2ncnc(-c3ccc(NC(=O)Cc4ccc(C(F)(F)F)cc4)cc3)c2cc1OC1CN(C(=O)OC(C)(C)C)C1` [Example 135, tert-butyl 3-((7-methoxy-4-(4-(2-(4-(trifluoromethyl)phenyl)acetamido)phenyl)quinazolin-6-yl)oxy)azetidin-1-carboxylate], the GI50 was in the range of 200 to 500 nM.

The next experiment has as its system c-KIT V560G/D816V. In words: Proliferation inhibitory activity on Ba/F3 cell (CellTiter-Glo, 72 hours), c-KIT V560G/D816V. The experiment is classed as cell-based. Particulars: Mus musculus, BaF3, c-KIT V560G/D816V cells, read-out: Cell (nM) c-KIT V560G/D816V (GI50 class). The protocol:
as §1, §2
For `COc1cc2c(-c3ccc(NC(=O)Cn4cc(C(C)(C)C)nn4)cc3)ncnc2cc1OCC1CCN(C)CC1` [Example 106, 2-(4-(tert-butyl)-1H-1,2,3-triazole-1-yl)-N-(4-(6-methoxy-7-((1-methylpiperidin-4-yl)methoxy)quinazolin-4-yl)phenyl)acetamide], the GI50 is over 500 nM.

As for `COc1cc2c(-c3ccc(NC(=O)Cn4cc(C(C)C)nn4)cc3)ncnc2cc1OCC1CCN(C(C)=O)CC1` [Example 107, N-(4-(7-((1-acetylpiperidin-4-yl)methoxy)-6-methoxyquinazolin-4-yl)phenyl)-2-(4-isopropyl-1H-1,2,3-triazole-1-yl)acetamide], the GI50 was over 500 nM.

For the compound `COc1cc2c(-c3ccc(NC(=O)Cn4cc(C(C)(C)C)nn4)cc3)ncnc2cc1OCC1CCN(C(C)=O)CC1` [Example 108, N-(4-(7-((1-acetylpiperidin-4-yl)methoxy)-6-methoxyquinazolin-4-yl)phenyl)-2-(4-(tert-butyl)-1H-1,2,3-triazole-1-yl)acetamide], the GI50 is over 500 nM.

With `CCN1CCCC(COc2cc3ncnc(-c4ccc(NC(=O)Cn5cc(C(C)C)nn5)cc4)c3cc2OC)C1` (stereo not drawn) [Example 111, N-(4-(7-((1-ethylpiperidin-3-yl)methoxy)-6-methoxyquinazolin-4-yl)phenyl)-2-(4-isopropyl-1H-1,2,3-triazole-1-yl)acetamide], the GI50 was over 500 nM.

With `CCN1CCCC(COc2cc3ncnc(-c4ccc(NC(=O)Cn5cc(C(C)(C)C)nn5)cc4)c3cc2OC)C1` (stereo not drawn) [Example 112, 2-(4-(tert-butyl)-1H-1,2,3-triazole-1-yl)-N-(4-(7-((1-ethylpiperidin-3-yl)methoxy)-6-methoxyquinazolin-4-yl)phenyl)acetamide], the GI50 is over 500 nM.

With `COCCN1CCC(COc2cc3ncnc(-c4ccc(NC(=O)CCCc5ccccc5)cc4)c3cc2OC)CC1` [Example 114, N-(4-(6-methoxy-7-((1-(2-methoxyethyl)piperidin-4-yl)methoxy)quinazolin-4-yl)phenyl)-4-phenylbutanamide], the GI50 fell in the range of 200 to 500 nM.

For `COCCOc1cc2ncnc(-c3ccc(NC(=O)Cc4ccc(C(F)(F)F)cc4)cc3)c2cc1OC` [Example 117, N-(4-(6-methoxy-7-(2-methoxyethoxy)quinazolin-4-yl)phenyl)-2-(4-(trifluoromethyl)phenyl)acetamide], the GI50 was at most 200 nM.

In the case of `COc1cc2c(-c3ccc(NC(=O)Cn4cc(C(C)(C)C)nn4)cc3)ncnc2cc1OCC1CCN(C(C)C)CC1` [Example 119, 2-(4-(tert-butyl)-1H-1,2,3-triazole-1-yl)-N-(4-(7-((1-isopropylpiperidin-4-yl)methoxy)-6-methoxyquinazolin-4-yl)phenyl)acetamide], the GI50 was over 500 nM.

In the case of `COc1cc2c(-c3ccc(NC(=O)Cn4cc(C(C)C)nn4)cc3)ncnc2cc1OCC1CCN(C(C)C)CC1` [Example 120, 2-(4-isopropyl-1H-1,2,3-triazole-1-yl)-N-(4-(7-((1-isopropylpiperidin-4-yl)methoxy)-6-methoxyquinazolin-4-yl)phenyl)acetamide], the GI50 is over 500 nM.
